{"source": "patent US4088778A", "about": "“Method for the treatment of hypertension” (priority 1975, dated 1978)", "key": {"[1]": {"experiment": "Hypotensive effect on experimental hypertension caused by DOCA", "assay_type": "in vivo, male wistar rats", "description": "(A) Hypotensive effect on experimental hypertension caused by administration of desoxycorticosterone (hereinafter referred to as \"DOCA\"):\nRight kidneys were removed from 6-week-old male wistar rats, and a 1% aqueous solution of sodium chloride was given as drinking water and 12.5 mg/Kg of DOCA was intramuscularly injected every week. The change of the blood pressure was examined over a period of 6 weeks.\n48 rats, each having one kidney removed, were divided into 6 groups, each consisting of 8 rats, and each group was placed in a cage. With respect to each group, a gum arabic solution was administered to 2 rats as non-administered control animals. 20 mg/Kg of TN was administered once a day to each of two rats among the remaining 6 rats, and 100 mg/Kg of TN was administered once a day to each of two rats among the remaining 4 rats. 88 mg/Kg of TA was administered once a day to each of the remaining two rats. TN and TA were administered in the form of a suspension in gum arabic. The blood pressure was measured by a Shimazu type systolic pressure continuous recording apparatus detecting pulse waves of rats taken in a thermostat fixed box maintained at 30° C."}, "[2]": {"experiment": "Clinical Experiment II: improvement of subjective symptoms", "assay_type": "in vivo, human patients", "description": "(§1) 75 patients of hypertension or arteriosclerosis having subjective symptoms were tested. Some of them suffered from complications such as ischemia heart disease and cerebral thrombosis. They are detailed in Table 11.\n(§2) Two capsules were administered at one time, and the administration was conducted 3 times per day after eating. The duration of the continuous administration was 4 weeks. Combined use of drugs having the same functions as those of TN (vitamin E drugs, nicotinic acid, its derivatives and peripheral vasolidators) and minor tranquilizers was prohibited.\nChanges of various subjective symptoms of patients of hypertension were collectively examined, and at the time of termination of the administration, the degrees of improvements were judged and evaluated in both the TN administered group and the P group, to obtain results shown in Table 22."}, "[3]": {"experiment": "Clinical Test I, double blind: general improvement", "assay_type": "in vivo, human patients", "settings": "for General improvement: Not Changed / General improvement: Partial Improvement / General improvement: Remarkable Improvement / General improvement: Slight Improvement / General improvement: Worsened: number of patients", "description": "Two capsules were orally administered at one time, and the administration was conducted three times a day after eating. The period of the administration was principally 4 weeks or 6 weeks. During this period, the administration was performed continuously. Combined administration of drugs having the same function as that of TN (vitamin E drugs, nicotinic acid, its derivatives and peripheral vasolidators) was prohibited.\nThe general improvement was evaluated by the attendant physician based on subjective symptoms and test results according to the following scale:\ni: remarkable improvement\nWhen 2, 4 or 6 weeks had passed from the start of the administration, the improvement was evaluated based on the symptoms before the administration."}, "[4]": {"experiment": "Clinical Experiment II: urine test", "assay_type": "in vivo, human patients", "description": "as §1, §2"}, "[5]": {"experiment": "Subacute and chronic toxicities", "assay_type": "in vivo", "settings": "rats 100 to 1000 mg/Kg and beagles 100 mg/Kg daily, 3 or 6 months", "description": "(B) Subacute and Chronic Toxicities:\nTN and TA were separately administered to rats and beagles at daily doses of 100 to 1000 mg/Kg and 100 mg/Kg, respectively, continuously for 3 or 6 months."}, "[6]": {"settings": "conclusion of both clinical experiments"}}}
{"smiles": "Cc1c(C)c2c(c(C)c1OC(=O)c1cccnc1)CCC(C)(CCCC(C)CCCC(C)CCCC(C)C)O2", "note": "(racemic) [TN, dl-α-tocopheryl nicotinate]", "values": [{"measurement": "number of rats with blood pressure elevated to 170 mm Hg or higher", "setting": "[1]; 20 mg/kg of TN once a day, among 10 rats (control 9 among 11)", "result": 5, "unit": "rats"}, {"measurement": "effect on increase of the blood pressure", "setting": "[1]; 100 mg/kg of TN", "result": "especially conspicuous"}, {"measurement": "number of rats with blood pressure elevated to 170 mm Hg or higher", "setting": "[1]; 100 mg/kg of TN once a day, among 12 rats (control 9 among 11)", "result": 3, "unit": "rats"}, {"measurement": "hypotensive effect, overall conclusion from pharmacological tests on animals", "setting": "[1]; DOCA rats, old SHR, young SHR", "result": "have a hypotensive effect"}, {"measurement": "Improvement of subjective symptoms: Improvement Ratio", "setting": "[2]; P group 52.94, P < 0.05", "result": 86.36, "unit": "%"}, {"measurement": "degree of improvement of subjective symptoms versus P group", "setting": "[2]; [6]", "result": "higher than in the P group"}, {"measurement": "improving rush of blood, dizzy feeling, stiffness in the shoulders, stiffness in the nape, heaviness in the head and insomnia", "setting": "[2]; [6]", "result": "especially good effects"}, {"measurement": "degree of improvement of subjective symptoms versus P group", "setting": "[2]; level of significance lower than 5%", "result": "excellent over that in the P group at a level of significance lower than 5%"}, {"measurement": "Improvement of subjective symptoms: Not Changed", "setting": "[2]; number of patients, total 22", "result": 3}, {"measurement": "Improvement of subjective symptoms: Partial Improvement", "setting": "[2]; number of patients, total 22", "result": 6}, {"measurement": "Improvement of subjective symptoms: Remarkable Improvement", "setting": "[2]; number of patients, total 22", "result": 7}, {"measurement": "Improvement of subjective symptoms: Slight Improvement", "setting": "[2]; number of patients, total 22", "result": 6}, {"measurement": "Improvement of subjective symptoms: Worsened", "setting": "[2]; number of patients, total 22", "result": 0}, {"measurement": "general improvement ratio over time", "setting": "[3]; 2, 4, 6 weeks", "result": "the improvement ratio was increased every two weeks"}, {"measurement": "General improvement: Improvement Ratio", "setting": "[3]; 2 weeks, total 38, P group 68.6 %", "result": 73.7, "unit": "%"}, {"measurement": "significance of general improvement versus P group", "setting": "[3]; 4 to 6 weeks", "result": "significantly better results were obtained in the TN group than in the P group"}, {"measurement": "General improvement: Improvement Ratio", "setting": "[3]; 4 weeks, total 39, P group 61.1 %, P = 0.0127", "result": 87.2, "unit": "%"}, {"measurement": "General improvement: Improvement Ratio", "setting": "[3]; 6 weeks, total 21, P group 63.6 %, P = 0.0094", "result": 95.2, "unit": "%"}, {"measurement": "General improvement: Not Changed", "setting": "[3]; 2 weeks, total 38", "result": 9}, {"measurement": "General improvement: Partial Improvement", "setting": "[3]; 2 weeks, total 38", "result": 13}, {"measurement": "General improvement: Remarkable Improvement", "setting": "[3]; 2 weeks, total 38", "result": 6}, {"measurement": "General improvement: Slight Improvement", "setting": "[3]; 2 weeks, total 38", "result": 9}, {"measurement": "General improvement: Worsened", "setting": "[3]; 2 weeks, total 38", "result": 1}, {"measurement": "General improvement: Not Changed", "setting": "[3]; 4 weeks, total 39", "result": 5}, {"measurement": "General improvement: Partial Improvement", "setting": "[3]; 4 weeks, total 39", "result": 14}, {"measurement": "General improvement: Remarkable Improvement", "setting": "[3]; 4 weeks, total 39", "result": 6}, {"measurement": "General improvement: Slight Improvement", "setting": "[3]; 4 weeks, total 39", "result": 14}, {"measurement": "General improvement: Worsened", "setting": "[3]; 4 weeks, total 39", "result": 0}, {"measurement": "General improvement: Not Changed", "setting": "[3]; 6 weeks, total 21", "result": 1}, {"measurement": "General improvement: Partial Improvement", "setting": "[3]; 6 weeks, total 21", "result": 7}, {"measurement": "General improvement: Remarkable Improvement", "setting": "[3]; 6 weeks, total 21", "result": 8}, {"measurement": "General improvement: Slight Improvement", "setting": "[3]; 6 weeks, total 21", "result": 5}, {"measurement": "General improvement: Worsened", "setting": "[3]; 6 weeks, total 21", "result": 0}, {"measurement": "urine specific Gravity, Average Value", "setting": "[4]; after administration, N 25, S.D. ±5.34", "result": 1017.92}, {"measurement": "urine specific Gravity, Average Value", "setting": "[4]; before administration, N 25, S.D. ±5.56", "result": 1017.56}, {"measurement": "deaths", "setting": "[5]", "result": "no deaths"}, {"measurement": "haematological, haemetobiological and histological surveys", "setting": "[5]", "result": "no manifestation of the toxicity was observed"}, {"measurement": "inhibition of the body weight", "setting": "[5]", "result": "inhibition of the body weight was not observed"}]}
